Test results from US10961189B2, “Spiro-lactam NMDA receptor modulators and uses thereof” (Aptinyx Inc., priority 2016, dated 2021).
Like-named read-outs stand apart in the source and are kept apart here.

Legend:
IV pharmacokinetics = assay type: in vivo, Sprague Dawley rats; conditions: rat, normal saline (* in 5% NMP, 5% Solutol HS, 90% normal saline); for Vd: read-out: Vss
Text: The table below summarizes the results of the IV pharmacokinetics.

Sprague Dawley rats = experiment: Bennett model of mechanical analgesia (sciatic nerve chronic constriction, paw withdrawal threshold); assay type: in vivo, rat;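 further: log paw withdrawal threshold scaled from vehicle group mean (0%) to naive 15 g value (100%)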
Experimental: The Bennett model of mechanical analgesia is used to assess the analgesic effects of compounds as measured by paw withdrawal threshold. Bennett GJ, Xie YK, “A peripheral mononeuropathy in rat that produces disorders of pain sensation like those seen in man,” Pain 33:87-107, 1988. […] Vehicle animals receive the surgery and then receive vehicle rather than test compound. Animals were tested 1 hr, 24 h and 1 wk post-test compound or vehicle administration.
Male 2-3 month old Sprague Dawley rats were used. Harlan was the supplier for all studies. Rats were housed in Lucite cages with aspen wood chip bedding, maintained on a 12:12 light:dark cycle (lights on at 5 AM), and given ad libitum access to Purina lab chow (USA) and tap water throughout the study.
Rats were anesthetized using inhaled isoflurane (2.5%). Sciatic nerve chronic constriction nerve injury surgery was performed as previously described (Bennett and Xie, 1988). An incision (˜1.5 cm in length) was made with a scalpel blade dorsally through skin on the right hind limb, parallel and posterior to femur. Using a small pointed hemostat, the biceps femoris and gluteus superficialis muscles were separated. Using curved blunt forceps, the common sciatic nerve was isolated and exposed. For the mechanical analgesia studies, the whole sciatic nerve was ligated. Using hemostats/forceps and chromic gut (5-0), the nerve was loosely ligated with a square knot; 3 ligatures, 1 mm apart were placed on the nerve. […] Testing occurred approximately 2 weeks post-surgery.
During testing, rats were acclimated to the surface of a suspended wire mesh grid (1 cm×1 cm, with the wire being 0.3 cm in diameter) for 15-20 min. Starting from the smallest, each Von Frey filament was pressed perpendicularly to the plantar surface of the affected (ipsilateral) hind paw until slightly bent and then held for 6 second. If an obvious hind paw withdrawal or a flinching behavior immediately after the withdrawal of the filament was not observed, the next larger filament was used in the same manner. In case of a response, a lower filament was used. This was repeated until six responses were collected.
For all studies, animals were baselined prior to study start to test for allodynia (defined as a paw withdrawal threshold under 5). A subset of animals was tested with gabapentin (150 mg/kg, PO) to ensure at least 50% analgesia. Once it was confirmed animals were ready for study initiation, animals were balanced across groups. All study investigators were blind to treatment conditions. Animals were dosed with 0.1, 1 or 10 mg/kg of test compound via oral gavage (PO), control sets of animals were dosed with gabapentin (150 mg/kg, PO) or vehicle (0.5% Na-CMC in 0.9% sterile saline, PO). Testing occurred 1 h post-dosing with animals retested 24 hrs and 1 week post-dosing. The percent analgesia calculations for each animal were made using the following equation: % analgesia=[(log(x)−y)/((log (z)−y)]*100, where x=the paw withdrawal threshold for the drug-treated animal in grams, y=the average of the log(x) values for the vehicle treated group, and z=the paw withdrawal threshold for naïve animals in grams (historical value of 15 used).
The results are shown in the table below where the percentage of analgesia is measured at 1 hour, 24 hours, and 1 week after compound administration. Since each study had its own gabapentin control group, an example gabapentin control value is shown.

[1] = Sprague-Dawley, in vivo, iv, 2 mg/kg
[2] = Sprague-Dawley, in vivo, iv, 2 mg/kg, read-out: C0
[3] = Sprague-Dawley, in vivo, intravenous 2 mg/kg

## CC1CCC2(CC1)CNC2=O (racemic) [Compound AD, 7-methyl-2-azaspiro[3.5]nonan-1-one]
IV pharmacokinetics; [1]
  AUC(0-t): 1360 ng·h/mL
  half-life: 0.79 h
  Vd: 0.97 L/kg
IV pharmacokinetics; [2]
  C0: 2060 ng/mL
IV pharmacokinetics; intravenous 2 mg/kg
  CI: 24.57 mL/min/kg
Sprague Dawley rats; 0.1 mg/kg PO, 1 wk
  % analgesia: 0%
Sprague Dawley rats; 0.1 mg/kg PO, 1 h
  % analgesia: 18.4%
Sprague Dawley rats; 0.1 mg/kg PO, 24 h
  % analgesia: 4.7%
Sprague Dawley rats; 1 mg/kg PO, 1 wk
  % analgesia: 17.9%
Sprague Dawley rats; 1 mg/kg PO, 1 h
  % analgesia: 15.4%
Sprague Dawley rats; 1 mg/kg PO, 24 h
  % analgesia: 13.8%
Sprague Dawley rats; 10 mg/kg PO, 1 wk
  % analgesia: 15.5%
Sprague Dawley rats; 10 mg/kg PO, 1 h
  % analgesia: 15.3%
Sprague Dawley rats; 10 mg/kg PO, 24 h
  % analgesia: 7.6%

## O=C1NCC12CCC(OCc1ccccc1)CC2 (single isomer, unassigned) [AI, 7-(benzyloxy)-2-azaspiro[3.5]nonan-1-one]
IV pharmacokinetics; [1]
  AUC(0-t): 1260 ng·h/mL
  half-life: 1.37 h
  Vd: 0.75 L/kg
IV pharmacokinetics; [2]
  C0: 4330 ng/mL
IV pharmacokinetics; intravenous 2 mg/kg
  CI: 26.19 mL/min/kg
Sprague Dawley rats; 0.1 mg/kg PO, 1 wk
  % analgesia: 7.7%
Sprague Dawley rats; 0.1 mg/kg PO, 1 h
  % analgesia: 5.3%
Sprague Dawley rats; 0.1 mg/kg PO, 24 h
  % analgesia: 7.7%
Sprague Dawley rats; 1 mg/kg PO, 1 wk
  % analgesia: 10.2%
Sprague Dawley rats; 1 mg/kg PO, 1 h
  % analgesia: 40.4%
Sprague Dawley rats; 1 mg/kg PO, 24 h
  % analgesia: 23.4%
Sprague Dawley rats; 10 mg/kg PO, 1 wk
  % analgesia: 22.0%
Sprague Dawley rats; 10 mg/kg PO, 1 h
  % analgesia: 50.0%
Sprague Dawley rats; 10 mg/kg PO, 24 h
  % analgesia: 33.2%

## C[C@@H](O)[C@H](NC1CCC2(CC1)CNC2=O)C(N)=O (single isomer, unassigned) [AP]
IV pharmacokinetics; intravenous 2 mg/kg, 2 mg/kg
  AUClast: 2941 ng·h/mL
  C0: 6420.4 ng/mL
  CI: 11.21 mL/min/kg
  T1/2: 2.77 h
  Vss: 0.92 L/kg
Sprague Dawley rats; 10 mg/kg PO, 1 wk
  % analgesia: 0%
Sprague Dawley rats; 10 mg/kg PO, 1 h
  % analgesia: 28.0%
Sprague Dawley rats; 10 mg/kg PO, 24 h
  % analgesia: 0%

## COc1ccc(CN2CC3(CCC(O)CC3)C2=O)cc1 (stereo not shown) [AG]
IV pharmacokinetics; [3]
  AUC(0-t): 650 ng·h/mL
  half-life: 0.4 h
  Vd: 0.7 L/kg
IV pharmacokinetics; Sprague-Dawley, in vivo, intravenous 2 mg/kg, read-out: C0
  C0: 2650 ng/mL
IV pharmacokinetics; intravenous 2 mg/kg
  CI: 51.36 mL/min/kg
Sprague Dawley rats; 0.1 mg/kg PO, 1 wk
  % analgesia: 1.7%
Sprague Dawley rats; 0.1 mg/kg PO, 1 h
  % analgesia: 26.7%
Sprague Dawley rats; 0.1 mg/kg PO, 24 h
  % analgesia: 14.8%
Sprague Dawley rats; 1 mg/kg PO, 1 wk
  % analgesia: 0%
Sprague Dawley rats; 1 mg/kg PO, 1 h
  % analgesia: 41.5%
Sprague Dawley rats; 1 mg/kg PO, 24 h
  % analgesia: 23.7%
Sprague Dawley rats; 10 mg/kg PO, 1 wk
  % analgesia: 0%
Sprague Dawley rats; 10 mg/kg PO, 1 h
  % analgesia: 56.9%
Sprague Dawley rats; 10 mg/kg PO, 24 h
  % analgesia: 26.7%

## O=C1NCC12CCC(O)CC2 (stereo not shown) [AL, 7-hydroxy-2-azaspiro[3.5]nonan-1-one]
IV pharmacokinetics; [1]
  AUC(0-t): 6220 ng·h/mL
  half-life: 3.73 h
  Vd: 0.83 L/kg
IV pharmacokinetics; [2]
  C0: 3990 ng/mL
IV pharmacokinetics; intravenous 2 mg/kg
  CI: 5.4 mL/min/kg
Sprague Dawley rats; 0.1 mg/kg PO, 1 wk
  % analgesia: 3.1%
Sprague Dawley rats; 0.1 mg/kg PO, 1 h
  % analgesia: 20.9%
Sprague Dawley rats; 0.1 mg/kg PO, 24 h
  % analgesia: 10.8%
Sprague Dawley rats; 1 mg/kg PO, 1 wk
  % analgesia: 6.6%
Sprague Dawley rats; 1 mg/kg PO, 1 h
  % analgesia: 52.7%
Sprague Dawley rats; 1 mg/kg PO, 24 h
  % analgesia: 14.4%
Sprague Dawley rats; 10 mg/kg PO, 1 wk
  % analgesia: 1.1%
Sprague Dawley rats; 10 mg/kg PO, 1 h
  % analgesia: 61.9%
Sprague Dawley rats; 10 mg/kg PO, 24 h
  % analgesia: 13.8%
